Data published in patent US8518956B2, “1-(1-(2-ethoxyethyl)-3-ethyl-7-(4-methylpyridin-2-ylamino)-1H-pyrazolo[4,3-d]pyrimidin-5-yl) piperidine-4-carboxylic acid and salts thereof” (priority 2005, dated 2013).

Columns and labels:
PDE5 enzyme = target: T1, PDE5 enzyme (Homo sapiens, UniProt O76074); experiment: Method 1A: Alternative Human Platelet PDE5 Enzyme Inhibition Scintillation Proximity Assay; format: biochemical; conditions: METHOD 1a: PDE5 IC50, Table D, WO2004096810 examples
T1 construct: The PDE5 enzyme isolated from human platelets; from tissue; host or cells: human platelets
Procedure: Method 1A: Alternative Human Platelet PDE5 Enzyme Inhibition Scintillation Proximity Assay
PDE5 IC50 Assay: 96-Well Microtiter Plate Format
• Buffer A: 20 mM Tris-HCl, 5 mM MgCl2, pH 7.4 • Buffer B: 2 mg/ml BSA in Buffer A (enzyme buffer) • cGMP substrate: Final concentration of 50 nM in assay The amount of ^3H-labeled substrate added depends upon the specific activity of [^3H]cGMP, and it is diluted in Buffer A. • PDE enzyme: Prepared in Buffer B. The dilution factor is determined by enzyme activity. • SPA beads: 4 mg/ml suspension prepared in dH2O.
Stocks of standard and test compound are prepared at 2 mM in 100% DMSO. […] 27 μl of Buffer A are added to the wells of the assay plates. From the dilution plate, 3 μl of diluted compound is delivered in duplicate or 3 μl of 100% DMSO (for positive and negative controls) are added. 30 μl of enzyme are added. For the negative control wells, Buffer B is substituted in place of the enzyme. 30 μl of labeled substrate are added to all wells.
After incubating for 60 minutes at room temperature, the reaction is stopped with the addition of 30 μl of the yttrium silicate beads. These beads are dense and require constant agitation while being added to the plate. The plates are sealed and shaken on a plate shaker for fifteen minutes to allow the beads to bind the GMP product.
After allowing the beads to settle for 30 minutes, plates are read on a NXT TopCount scintillation counter and the data are analyzed as follows. Percent inhibition values are calculated using the means of the 0% and 100% controls on each plate. The estimates of the 4-parameters of the logistic, sigmoid dose-response model are then calculated using the well-level percent inhibition value for the compound.

[1] = system: Chinese hamster ovary (CHO) cells; experiment: Method 7: Micronucleus Assay; format: cell-based; parameters: key: Negative: A negative result identifies no genotoxic hazard defined by the assays specific endpoint; Positive: A positive result identifies a genotoxic hazard defined by the assays specific endpoint; Equivocal: fails to display a negative or positive result as defined by established evaluation criteria; Inconclusive: the test compound has been evaluated in an invalid assay test; conditions: in vitro, with and without S9
Procedure: Method 7: Micronucleus Assay
An in vitro micronucleus assay can be used to determine the mutagenic potential of a test compound. This assay detects chromosome abnormalities resulting from exposure to a test compound by measuring the formation of small membrane-bound DNA fragments such as micronuclei in the cytoplasm of interphase cells.
The assay is conducted using Chinese hamster ovary (CHO) cells under different test conditions in the absence and presence of metabolic activation. Concordance in outcomes between this screening assay and in vitro cytogenetics is around 85%. Direct (−S9) testing is conducted using 24 hour or 3 hour continuous treatments, whereas testing with metabolic activation (+S9) involves a 3 hour treatment. Clastogenicity is indicated by an increase in numbers of micronucleated cells in the first interphase after exposure (in cytokinesis-blocked binucleated cells). The results are compared to the level of cytotoxicity (measured by the proportion of binucleated cells) a test compound produces. […] A test compound displaying a negative response has not fulfilled specific evaluation criteria for the assay which may include one or both of the following: 1) a reproducible concentration dependent increase in the specific assay endpoint when compared to a negative (vehicle) control and/or 2) one or more test concentrations achieving a minimum fold increase in the specific endpoint over controls. • Positive—A positive result identifies a genotoxic hazard defined by the assays specific endpoint (ex. positive in vitro micronucleus). A test compound displaying a positive response has fulfilled specific evaluation criteria for the assay which may include one or both of the following: 1) a reproducible concentration dependent increase in the specific assay endpoint when compared to a negative (vehicle) control and/or 2) one or more test concentrations achieving a minimum fold increase in the specific endpoint over controls. • Equivocal—An equivocal result is reserved for situations where the test compound has been evaluated in a valid assay test or tests (i.e. assay acceptability criteria satisfactory), but fails to display a negative or positive result as defined by established evaluation criteria. This may convey the presence of a weak positive response that requires additional repeat testing or eventual confirmatory testing case-by-case. • Inconclusive—An inconclusive result is reserved for situations where the test compound has been evaluated in an invalid assay test (i.e. assay acceptability criteria unsatisfactory for technical reasons, ex. negative or positive controls fail to respond appropriately). Repeat testing is recommended in order to establish a valid assay test result.

Cc1ccnc(Nc2nc(N3CCC(C(=O)O)CC3)nc3c(C)nn(CCOCC(F)(F)F)c23)c1 [WO2004096810 Example 261]
IC50 (PDE5 enzyme): 0.115 nM | METHOD 7: MICRONUCLEUS ASSAY [1]: Positive

Cc1cc(Nc2nc(N3CCC(C(=O)O)CC3)nc3c(C)nn(CCOCC(F)(F)F)c23)ncn1 [WO2004096810 Example 262]
IC50 (PDE5 enzyme): 0.0755 nM | METHOD 7: MI[…] [1]: Equivocal

CCc1nn(CCOCC(F)(F)F)c2c(Nc3cc(C)ncn3)nc(N3CCC(C(=O)O)CC3)nc12 [WO2004096810 Example 263]
IC50 (PDE5 enzyme): 0.0197 nM | METHOD 7: MICRONUCLEUS ASSAY [1]: Positive
